In US7071168B2, “Anti-cancer compounds and methods related thereto” (The Regents of the University of Colorado, priority 1998, dated 2006):
Non-standard residues stand in square brackets, D forms with d. No end group written: not given here. Oic = O=C(O)[C@@H]1C[C@@H]2CCCC[C@@H]2N1; dTic = O=C(O)[C@H]1Cc2ccccc2CN1

System: bradykinin response of isolated guinea pig ileum
Experiment: Anti-bradykinin activity on isolated guinea pig ileum
Conditions: Table 1; higher numbers indicate higher potency
Protocol: (§1) In general, Anti-bradykinin activity was determined by the classical guinea pig ileum assay and on Chinese hamster ovary (CHO) cells expressing cloned human bradykinin B2 receptors. Anti-tumor activity was determined on cultured human cancer cell lines using the standard tetrazolium (MTT) assay.
Male Hartley guinea pigs that had been deprived of food overnight were sacrificed, and sections of terminal ileum, 25 mm in length, were dissected, attached to tissue holders and immersed in 10 ml tissue baths containing Krebs' solution bubbled with 95% O2/5% CO2. Tissues were placed under 1 g tension and incubated for 1 h equilibration. Concentration-effect curves were constructed to bradykinin in the absence and presence of new compounds.

Row | Compound | GPI: pA2 for bradykinin antagonist activity on isolated guinea pig ileum
1 | RPPGFT[dTic][Oic]-NH2 [B10284] | 7.7
2 | N=C(N)NCCCC(NC(=O)C=Cc1ccc(C(F)(F)F)cc1)C(=O)O (stereo not drawn) [M374, Tfmc-Arg] | 4.6
3 | F5c-DhPhe-Arg [M730] | 4.7
4 | Dcg-2Nal-Arg [M10] | 4.8
5 | F5c-Thi-Arg [M424] | 4.6
6 | F5c-Trp-Arg [M426] | Inact
7 | F5c-PNF-Arg [M732] | 4.9
8 | Dcg-p-Amb-Arg [M346] | 4.6
9 | Aaa-DTic-hPhe-Arg [M764] | 4.8
10 | RPPGFT[dTic][Oic]R [B10282] | 7.3
11 | F5c-Dpr(Fbz)-Arg [M688] | Inact
12 | Ac-Pac-Gly-m-Abz-2-Nal-Arg [M198] | 5.1
13 | F5c-p-Amb-APa-Arg [M352] | 4.7
14 | Ac-PaF(Mcg)-Arg [M118-1] | 4.9
15 | N=C(N)NCCCC(NC(=O)C=Cc1c(F)c(F)c(F)c(F)c1F)C(=O)O (stereo not drawn) [M370, F5c-Arg] | 4.8
16 | Dcg-(D,L)Ata-Arg [M96] | 4.7

Same assay, conditions: guinea pig ileum

Row | Compound | pD2 of bradykinin on ileum
17 | RPPGFSPFR [BK, reference compound] | 7.4

Same assay, conditions: isolated guinea pig ileum; pD2 of bradykinin is 7.4; higher numbers indicate higher potency

Row | Compound | GPI: pA2 for bradykinin antagonist activity on isolated guinea pig ileum
18 | CC1(C)CC(NC(=O)[C@@H](NC(=NC2CCCCC2)NC2CCCCC2)C2Cc3ccccc3C2)CC(C)(C)N1Cc1ccccc1 [M258] | 5.0
19 | O=C(NC(CNC(=O)C(Cc1ccc2ccccc2c1)NC(=NC1CCCCC1)NC1CCCCC1)C(=O)O)C1CCNCC1 (stereo not drawn) [M172] | 4.9
20 | CC1(C)CC(NC(=O)C(CC(=O)O)NC(=O)Cc2ccc(NC(=O)C=Cc3ccc(C(F)(F)F)cc3)cc2)CC(C)(C)N1 (stereo not drawn) [M368] | 4.7
21 | O=C(O)Cc1ccc(NC(=O)C(Cc2ccc3ccccc3c2)NC(=NC2CCCCC2)NC2CCCCC2)cc1 (stereo not drawn) [M36] | 5.0
22 | O=C(O)C(Cc1cccnc1)NC(=O)C(Cc1ccc2ccccc2c1)NC(=NC1CCCCC1)NC1CCCCC1 (stereo not drawn) [M104] | 4.9
23 | O=C(O)Cc1ccc(NC(=O)C(Cc2ccc3ccccc3c2)NC(=NC2CCCCC2)NC2CCCCC2)cc1 (stereo not drawn) [M30] | 5.4
24 | CC1(C)CC(NC(=O)C(CC(=O)O)NC(=O)Cc2ccc(NC(=O)C=Cc3c(F)c(F)c(F)c(F)c3F)cc2)CC(C)(C)N1 (stereo not drawn) [M364] | 4.7
25 | CC1(C)CC(NC(=O)C(CCC(=O)O)NC(=O)C(Cc2ccc3ccccc3c2)NC(=NC2CCCCC2)NC2CCCCC2)CC(C)(C)N1 (stereo not drawn) [M350] | 5.0
26 | CN1CCN(NC(=O)[C@H](Cc2ccc3ccccc3c2)NC(=O)C=Cc2ccc(NC(=O)CCCCCCCCCCC(=O)Nc3ccc(C=CC(=O)N[C@@H](Cc4ccc5ccccc5c4)C(=O)NN4CCN(C)CC4)cc3)cc2)CC1 [M480-2] | 5.6
27 | O=C(O)CC(NC(=O)C(Cc1ccc2ccccc2c1)NC(=NC1CCCCC1)NC1CCCCC1)C(=O)NC1CN2CCC1CC2 (single isomer, unassigned) [M336-1] | 5.1
28 | O=C(O)CC(NC(=NC1CCCCC1)NC1CCCCC1)C(=O)NC1CN2CCC1CC2 (stereo not drawn) [M174] | Inact
29 | CC1(C)CC(NC(=O)C(CC(=O)O)NC(=O)Cc2ccc(NC(=NC3CCCCC3)NC3CCCCC3)cc2)CC(C)(C)N1 (stereo not drawn) [M362] | 4.9
30 | O=C(C=Cc1c(F)c(F)c(F)c(F)c1F)NCC(=O)Nc1cccc(C(=O)N[C@@H](Cc2ccc3ccccc3c2)C(=O)O)c1 [M202] | 5.1
31 | O=C(C[C@H](NC(=O)[C@H](Cc1ccc2ccccc2c1)NC(=NC1CCCCC1)NC1CCCCC1)C(=O)O)NC1CN2CCC1CC2 (stereo partly drawn) [M188B] | 5.5

System: SCLC strain SHP-77
Experiment: Colorimetric tetrazolium (MTT) assay for cell survival, SCLC strain SHP-77
Format: cell-based, human
Conditions: SCLC strain SHP-77 in vitro
Protocol: as §1
Cell growth and survival were measured by a rapid colorimetric assay based on the tetrazolium salt MTT (3-(4,5-dimethylthiazol-2-yl)-2,5-diphenyl tetrazolium bromide) (Mosmann, J Immunol. Methods 65: 55–63, 1983, with minor modifications). Briefly, 1,000 normal lung fibroblasts or normal epithelial BEAS-2B cells, 1,000 or 5,000 viable non-SCLC cells or 10,000 viable SCLC cells were plated in 100 μL of growth medium in 96-well flat-bottomed microtiter plates. Cells were incubated overnight to allow recovery. Compounds to be tested were added to the cells in triplicate in a range of concentrations and the cells were incubated at 37° C., 5% CO2, with 100% humidity. Control cells were treated in the same way without antagonists. […] Plates were incubated for 4 days, allowing sufficient time for cell replication and compound-induced cell death to occur. On day 5, 25 μL of a 2 mg/mL solution of MTT (Sigma) dissolved in RMPI-1640was added to each well. The plate was incubated for 4 h at 37° C. The supernate was removed and the blue formazan complex was dissolved by adding 100 μL of 0.02 N HCl in 75% isopropanol to all wells. Absorbance was immediately determined using a scanning multiwell plate reader. B9870 caused 50% cell death at a concentration of 0.15 μM under these conditions.

Row | Compound | MTT: ED50 for killing of SCLC strain SHP-77 in vitro [µM]
32 | CN(C)CCCNC(=O)[C@H](Cc1ccc2ccccc2c1)NC(=O)C=Cc1ccc(NC(=O)CCCCCCCCCCC(=O)Nc2ccc(C=CC(=O)N[C@@H](Cc3ccc4ccccc4c3)C(=O)NCCCN(C)C)cc2)cc1 [M538] | >80
33 | CC1(C)CC(NC(=O)C(Cc2ccc3ccccc3c2)NC(=O)CCCCCNC(=O)c2cc(C(=O)NCCCCCC(=O)NC(Cc3ccc4ccccc4c3)C(=O)NC3CC(C)(C)NC(C)(C)C3)cc(C(=O)NCCCCCC(=O)NC(Cc3ccc4ccccc4c3)C(=O)NC3CC(C)(C)NC(C)(C)C3)c2)CC(C)(C)N1 (stereo not drawn) [M290-2] | 20
34 | O=C(CCCCCCCCCCC(=O)N[C@@H](Cc1cccnc1)C(=O)N[C@@H](Cc1ccc2ccccc2c1)C(=O)NC1CCCCC1)N[C@@H](Cc1cccnc1)C(=O)N[C@@H](Cc1ccc2ccccc2c1)C(=O)NC1CCCCC1 [M460] | 15
35 | CC1(C)CC(NC(=O)C2CC3CCCCC3N2C(=O)C=Cc2c(F)c(F)c(F)c(F)c2F)CC(C)(C)N1 (stereo not drawn) [M320] | 13
36 | Cc1cc(NC(=O)c2cccc(NC(=O)CNC(=O)/C=C/c3cccnc3)c2)c2ccccc2n1 [M428] | >300

Same assay, conditions: Table 1; SHP-77, MTT, 4 days

Row | Compound | MTT: ED50 for killing of SCLC strain SHP-77 in vitro
37 | F5c-DArg-Arg-Aud-Pac-2Nal-Arg [M698] | 7.1 µM
38 | Dmac-DArg-Arg-Aud-Ser-D5F5-Oic-Arg [M968] | 15 µM
39 | DDD-(DArg-PFF-Arg-NH2)2 [M818] | 60 µM
40 | Aaa-DArg-Arg-Aud-Ser-D5F5-Oic-Arg [M956] | 14 µM
41 | α-Lys-DArg-Arg-Pro-Hyp-Gly-Igl-Ser-DIgl-Oic-Arg Sub-Arg-DNMF-DTrp-Phe-DTrp-Leu [B9950] | 8 µM
42 | F5c-PCF-Arg [M714] | Inact
43 | Ac-OC2Y-Arg [M784] | Inact
44 | Dca-hPhe-Arg [M542] | 80 µM

Same assay, conditions: Table 3, cyclic peptides

Row | Compound | MTT: ED50 for killing of SCLC strain SHP-77 in vitro
45 | c[Arg-DNMF-DTrp-Phe-DTrp-Leu] [B10306] | Inact
